According to US20220160812A1, “A PHARMACEUTICALLY ACTIVE SUBSTANCE” (Cytopharma GmbH, priority 2019, published 2022):

Tested on: BxPC-3 human pancreatic cancer cells
Test: subG1 cell cycle FACS apoptosis assay, BxPC-3 cells
Format: cell-based
Conditions: BxPC-3, Protocol A, about 24 hours, FIG. 10
Protocol: To transfer adherent cells (A375 and BxPC-3 cells) after culture, cells are washed twice with PBS. To detach the cells, the enzyme biotase is used according to the manufacturer's instructions. For this purpose, after washing with PBS, the cells are mixed with biotase (5 ml of biotase solution per 75 cm^2 surface of the cell culture bottles) and incubated for 5 min at 37 degrees Celsius, and the biotase is separated by centrifugation. Cells cultivated in suspension (MEC-1 and lymphocytes) were transferred by dilution. The cells are suspended in culture medium and counted, each time 1.5×10^5 cells/cm^2 are seeded in 48-well plates and cultured for between 1.5 and 24 hours at 37 degrees Celsius, 5% CO2. Peptides are pre-diluted from stock solution with culture medium and 200 μl of peptide solution added so that final concentrations of 30 to 500 μM peptide are present in at most 1% (v/v) DMSO. As control solutions, culture medium without peptide (DMSO-containing) in culture medium or etoposide solution is added. After incubating the cells for several hours, the cell supernatant is transferred to a FACS tube for each batch and, after washing the cells with PBS, the wash solution is added. Then the cells are incubated with 200 μl of biotase solution for 10 min, 37° C., the cells with the biotase are also transferred to the FACS tube and the cells are collected by centrifugation for 5 min. The cell pellet is suspended in 500 μl of serum-free culture medium, then 1.5 ml of cold 80% ethanol (ethanol/PBS-80/20, v/v, stored at −20° C.) is added, the FACS tubes sealed and stored at −20 degrees Celsius for 15 to 18 h. Thereafter, the cells are centrifuged for 5 minutes at 120 g, suspended after removal of the supernatant in 2 ml PBS and incubated at 37 degrees Celsius for 30 minutes. After re-centrifugation, the cells are suspended in 0.5 ml DAPI solution and incubated for 15 min at 20 degrees Celsius in the dark. Thereafter, the cells are stored dark for a maximum of four hours in an ice bath, followed by the FACS analysis.
The adherent cells (A375 and BxPC-3 cells and MDA-MB-231, respectively) are seeded 24 hours before induction in 6-well plates in culture medium. For this, the cells are washed with PBS, then incubated with trypsin/EDTA solution at 37 degrees Celsius and suspended in culture medium. The 6-well plates are loaded with 1×10^5 cells/cm^2 in culture medium and the cells incubated for 24 hours until induction with the peptides in the incubator. For induction, the peptides are diluted in fresh culture medium. As control solutions, culture medium without peptide (DMSO-containing) in culture medium or etoposide solution is added. The cells are washed with PBS. Thereafter the peptide solution in culture medium is added to the cells. After incubation in the incubator (37° C., 5% CO2) between 1.5 and 24 hours, the cell supernatant is transferred to 15 ml centrifuge tubes, the cells are washed with 0.75 ml PBS and then with 0.5 ml versene solution. Both washings are combined with the cell supernatant. The cells are then added with 0.5 ml of trypsin/EDTA solution and incubated at about 37° C. for at most 10 minutes until the cells detached. The cell suspension is combined with cell supernatant and washings and centrifuged at about 130 g for about 10 minutes. After removing the supernatant, the cells are suspended in 400 μl of cell culture medium (without serum) and mixed with 1.2 ml of 80% ethanol/20% PBS (v/v) and incubated for 1 to 7 days at −20° C. For analysis, the cells are centrifuged at 130 g for 10 min, suspended in 2 ml PBS, and centrifuged again for 5 min. The cells are suspended in 700 μl PI buffer and incubated for 10 min at 37° C. in the dark. Subsequently, the cells are stored dark for a maximum of four hours in an ice bath, then the FACS analysis is performed. […]

Substance | apoptosis efficiency (subG1), comparison in words (50 μM) | apoptosis efficiency (subG1), comparison in words (100 μM) | apoptosis efficiency (subG1), comparison in words (200 μM) | apoptosis efficiency (subG1) in view of Peptide SEQ C1 (any concentration (50, 100, 200 μM))
k-s-q-t-v-k-k-w-m-v-v-y-f-r-k [SEQID No 29] | slight improvement over peptides SEQID NO 27 and SEQID NO 37 | higher efficiency at 100 μM in view of Peptides SEQID NO 27, SEQID NO 37 and SEQID NO 36 | – | –
k-s-q-t-v-q-k-w-m-v-v-y-f-r-k [SEQID No 36] | slight improvement over peptides SEQID NO 27 and SEQID NO 37 | – | clear improvement over peptides SEQID NO 27 and SEQID NO 29 | at least fourfold
s-q-t-v-q-k-w-m-v-v-y-f-r-k [SEQID No 37] | – | – | clear improvement over peptides SEQID NO 27 and SEQID NO 29 | –
